Consider ten molecules from patent US6342319B1, “Nonaqueous electrolyte secondary battery and method of manufacturing negative electrode” (Kabushiki Kaisha Toshiba, priority 1997, dated 2002).

A short description of data set [1]: Acid dissociation constant pKa of the aromatic compound used as precursor material.

SMILES strings stand for the structures.

By pKa is commonly meant the negative logarithm of the acid dissociation constant. Low values mean a group that gives up its proton readily, high ones a group that holds its proton tightly. In data set [1], `O=C(O)c1cc(C(=O)O)c(C(=O)O)cc1C(=O)O` [benzene-1,2,4,5-tetracarboxylic acid] gave a pKa of 3.5 to 4.5.

`O=C(O)c1ccc(C(=O)O)c(C(=O)O)c1` [benzene-1,2,4-tricarboxylic acid] returned a pKa in data set [1] of 3.5 to 4.5.

In “physchem”, `O=C(O)c1ccccc1C(=O)O` [benzene-1,2-dicarboxylic acid] returned a pKa of 3.5 to 4.5.

Regarding `O=C(O)c1cccc(C(=O)O)c1` [benzene-1,3-dicarboxylic acid], in data set [1], the pKa is 3.5 to 4.5.

As for `O=C(O)c1ccc(C(=O)O)cc1` [benzene-1,4-dicarboxylic acid], in “physchem”, the pKa lay within 3.5 to 4.5.

Molecule `O=C(O)c1ccc(C(=O)O)c2c(C(=O)O)ccc(C(=O)O)c12` [naphthalene-1,4,5,8-tetracarboxylic acid] had a pKa in data set [1] of 3.5 to 4.5.

On to `O=C(O)c1ccc(C(=O)O)c2ccccc12` [naphthalene-1,4-dicarboxylic acid], for which the pKa in data set [1] is 3.5 to 4.5.

`O=C(O)c1cccc2cccc(C(=O)O)c12` [naphthalene-1,8-dicarboxylic acid] displayed a pKa in data set [1] of 3.5 to 4.5.

For `O=C(O)c1cccc2ccccc12` [naphthalene-1-carboxylic acid], in data set [1], the pKa came out at 4.2.

In the case of `O=C(O)c1ccc2c3ccc(C(=O)O)c4c(C(=O)O)ccc(c5ccc(C(=O)O)c1c25)c43` [perylene-3,4,9,10-tetracarboxylic acid], the pKa in data set [1] was 3.5 to 4.5.
